Laboratory results from ChEMBL document CHEMBL1201862, “PubChem BioAssay data set” (2004).
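Values below derive from 48-hour exposures of cells grown in 96-well plates, with endpoints linearly interpolated between the two concentrations bracketing the appropriate inhibition level. Here, GI50 denotes the concentration required for 50% inhibition of growth.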 Activity calls are given as the source filed them. Rule as the data show it: active = GI50 up to about 1.1 µM and inactive = higher.

Legend:
Experiment in all cases: DTP human tumour cell line panel, 48 h
SF-295 = test system: SF-295
HOP-62 = test system: HOP-62
SNB-19 = test system: SNB-19
SF-268 = test system: SF-268
A498 = test system: A498
A549 = test system: A549
KM12 = test system: KM12
NCI-H522 = test system: NCI-H522
M14 = test system: M14
786-0 = test system: 786-0
NCI-H23 = test system: NCI-H23
HCT-116 = test system: HCT-116
Malme-3M = test system: Malme-3M
IGROV-1 = test system: IGROV-1
LOX IMVI = test system: LOX IMVI
HL-60 = test system: HL-60
NCI-H226 = test system: NCI-H226
CCRF-CEM = test system: CCRF-CEM
Hs-578T = test system: Hs-578T

| SMILES | GI50 (SF-295) | GI50 (HOP-62) | GI50 (SNB-19) | GI50 (SF-268) | GI50 (A498) | GI50 (A549) | GI50 (KM12) | GI50 (NCI-H522) | GI50 (M14) | GI50 (786-0) | GI50 (NCI-H23) | GI50 (HCT-116) | GI50 (Malme-3M) | GI50 (IGROV-1) | GI50 (LOX IMVI) | GI50 (HL-60) | GI50 (NCI-H226) | GI50 (CCRF-CEM) | GI50 (Hs-578T) |
| --- | --- | --- | --- | --- | --- | --- | --- | --- | --- | --- | --- | --- | --- | --- | --- | --- | --- | --- | --- |
| CCCCCCCCCCCCOCC(COP(=O)(O)OCCN=[N+]=[N-])OC(=O)CCCCCCCCCCC (stereo not given) | > 100 µM (inactive) | > 100 µM (inactive) | > 100 µM (inactive) | > 100 µM (inactive) | > 100 µM (inactive) | > 100 µM (inactive) | > 100 µM (inactive) | > 100 µM (inactive) | > 100 µM (inactive) | > 100 µM (inactive) | > 100 µM (inactive) | > 100 µM (inactive) | > 100 µM (inactive) |  |  |  |  |  |  |
| O=C(NC1CC1)c1c(O)[nH]c(=S)[nH]c1=O | > 100 µM (inactive) | > 100 µM (inactive) | > 100 µM (inactive) | > 100 µM (inactive) | > 100 µM (inactive) | > 100 µM (inactive) | > 100 µM (inactive) | > 100 µM (inactive) | > 100 µM (inactive) | > 100 µM (inactive) | > 100 µM (inactive) | > 100 µM (inactive) | > 100 µM (inactive) | > 100 µM (inactive) | > 100 µM (inactive) | > 100 µM (inactive) | > 100 µM (inactive) | > 100 µM (inactive) |  |
| Cc1cc(Cl)ccc1/N=N/C(=O)NNc1ccc(Cl)cc1C |  | 11.5 µM (inactive) | 17.6 µM (inactive) | 16.4 µM (inactive) | 9.06 µM (inactive) | 12.9 µM (inactive) |  | 20.3 µM (inactive) | 16.9 µM (inactive) | 16.3 µM (inactive) | 15.5 µM (inactive) | 13.4 µM (inactive) | 21 µM (inactive) | 6.62 µM (inactive) | 16.9 µM (inactive) | 20.3 µM (inactive) | 16.4 µM (inactive) | 21.1 µM (inactive) |  |
| CCNc1ncnc2c1nnn2CC | 79.6 µM (inactive) | > 100 µM (inactive) | > 100 µM (inactive) |  | > 100 µM (inactive) | > 100 µM (inactive) | > 100 µM (inactive) | > 100 µM (inactive) | > 100 µM (inactive) | > 100 µM (inactive) | > 100 µM (inactive) | > 100 µM (inactive) | > 100 µM (inactive) | > 100 µM (inactive) | > 100 µM (inactive) | > 100 µM (inactive) | > 100 µM (inactive) | > 100 µM (inactive) |  |
| C=C1C(=O)C23CC1CCC2C12CO[C@H](O)[C@H]1C(C)(C)[C@H](OC(C)=O)C[C@H]2OC3=O (stereo not given in full) | > 100 µM (inactive) |  | > 100 µM (inactive) | 14.7 µM (inactive) |  | > 100 µM (inactive) | 23 µM (inactive) | 1.26 µM (inactive) | 25.4 µM (inactive) | 16 µM (inactive) | 27.7 µM (inactive) | 14.8 µM (inactive) | 13.3 µM (inactive) | 31.9 µM (inactive) | 18.1 µM (inactive) | 16.6 µM (inactive) | > 100 µM (inactive) | 6.14 µM (inactive) | 34.4 µM (inactive) |
| CC1(C)CCCC2(C)C3C(O)CC2(C)C(O)C31 (stereo not given) | > 100 µM (inactive) | > 100 µM (inactive) | > 100 µM (inactive) | > 100 µM (inactive) | > 100 µM (inactive) | > 100 µM (inactive) | > 100 µM (inactive) | > 100 µM (inactive) | > 100 µM (inactive) | < 0.01 µM (active) | > 100 µM (inactive) | > 100 µM (inactive) | > 100 µM (inactive) | > 100 µM (inactive) | > 100 µM (inactive) |  | > 100 µM (inactive) | > 100 µM (inactive) |  |
| C=CCC1C(O[Si](C)(C)C(C)(C)C)C(CO[Si](C)(C)C(C)(C)C)OC1n1ccc(=O)[nH]c1=O (stereo not given) | 1.78 µM (inactive) | 1.98 µM (inactive) | 1.61 µM (inactive) |  | 2.03 µM (inactive) | 1.38 µM (inactive) | 1.96 µM (inactive) |  | 1.42 µM (inactive) | 1.15 µM (inactive) | 1.29 µM (inactive) | 1.06 µM (active) |  | 1.41 µM (inactive) | 0.705 µM (active) |  | 1.51 µM (inactive) | 0.548 µM (active) |  |
| O=c1oc2c3ccc4ccccc4c3n(CCCN3CCCCC3)c2c2ccccc12 | 46.9 µM (inactive) | > 100 µM (inactive) | > 100 µM (inactive) | 59.2 µM (inactive) |  | 34 µM (inactive) | 26.5 µM (inactive) | > 100 µM (inactive) | 11.5 µM (inactive) | 18.7 µM (inactive) |  | 16.1 µM (inactive) | 20.7 µM (inactive) | > 100 µM (inactive) | > 100 µM (inactive) | 17.2 µM (inactive) |  | 17.3 µM (inactive) |  |
| O=C(N/N=C1\CCc2ccccc2C1)N/N=C1\CCc2ccccc2C1 | > 10 µM (inactive) | > 10 µM (inactive) | > 10 µM (inactive) | > 10 µM (inactive) |  | > 10 µM (inactive) | > 10 µM (inactive) | > 10 µM (inactive) | > 10 µM (inactive) | > 10 µM (inactive) | > 10 µM (inactive) | > 10 µM (inactive) | > 10 µM (inactive) |  |  | > 10 µM (inactive) | > 10 µM (inactive) | > 10 µM (inactive) |  |
| Fc1cccc(Cl)c1C1SCc2nc3cc4ccccc4cc3n21 (stereo not given) | 62.7 µM (inactive) | 35 µM (inactive) | 52.7 µM (inactive) | > 100 µM (inactive) |  | > 100 µM (inactive) | > 100 µM (inactive) |  | > 100 µM (inactive) | 39.4 µM (inactive) | > 100 µM (inactive) | 68.5 µM (inactive) | 43.4 µM (inactive) | 46.9 µM (inactive) | > 100 µM (inactive) |  | 33.8 µM (inactive) | > 100 µM (inactive) | 28.7 µM (inactive) |
| CCc1c(OC(C)=O)c2c(NC3OCC(OC(C)=O)C(OC(C)=O)C3OC(C)=O)nc(SC)nc2oc1=O (stereo not given) | > 100 µM (inactive) | > 100 µM (inactive) | > 100 µM (inactive) |  | > 100 µM (inactive) | > 100 µM (inactive) | > 100 µM (inactive) |  | > 100 µM (inactive) | > 100 µM (inactive) | > 100 µM (inactive) | > 100 µM (inactive) | > 100 µM (inactive) | > 100 µM (inactive) | > 100 µM (inactive) | > 100 µM (inactive) | > 100 µM (inactive) | > 100 µM (inactive) |  |
| O=C(O)[C@@H]1CCS(=O)(=O)N1 | > 100 µM (inactive) | > 100 µM (inactive) | > 100 µM (inactive) | > 100 µM (inactive) | > 100 µM (inactive) | > 100 µM (inactive) | > 100 µM (inactive) | > 100 µM (inactive) | > 100 µM (inactive) | > 100 µM (inactive) | > 100 µM (inactive) | > 100 µM (inactive) | > 100 µM (inactive) | > 100 µM (inactive) | > 100 µM (inactive) | > 100 µM (inactive) |  | > 100 µM (inactive) |  |
| C1=CC2=CC=CC3c4nc5ccc6ccccc6c5nc4C(=C1)C23 (stereo not given) | > 100 µM (inactive) | > 100 µM (inactive) | > 100 µM (inactive) | > 100 µM (inactive) |  | > 100 µM (inactive) | > 100 µM (inactive) |  | > 100 µM (inactive) | > 100 µM (inactive) | > 100 µM (inactive) | > 100 µM (inactive) | > 100 µM (inactive) | > 100 µM (inactive) | > 100 µM (inactive) | > 100 µM (inactive) | > 100 µM (inactive) | > 100 µM (inactive) | > 100 µM (inactive) |
| Cc1cc2[nH]c3c(C#N)c(-c4ccccc4)c(/N=N/c4ccc(F)cc4)c(=O)n3c2cc1C | > 100 µM (inactive) | > 100 µM (inactive) | > 100 µM (inactive) | 35.9 µM (inactive) | > 100 µM (inactive) | 68.1 µM (inactive) |  | 18.5 µM (inactive) | > 100 µM (inactive) | 31 µM (inactive) | > 100 µM (inactive) | 25.6 µM (inactive) |  |  | > 100 µM (inactive) |  | > 100 µM (inactive) | > 100 µM (inactive) |  |
| COc1ccc(NC(=O)CC/C(CC(=O)C(C)(C)C)=N\NC(=O)C(N)=O)cc1 | > 100 µM (inactive) | > 100 µM (inactive) | > 100 µM (inactive) | > 100 µM (inactive) |  | > 100 µM (inactive) | > 100 µM (inactive) |  | > 100 µM (inactive) | > 100 µM (inactive) | > 100 µM (inactive) | > 100 µM (inactive) | > 100 µM (inactive) | > 100 µM (inactive) | > 100 µM (inactive) | > 100 µM (inactive) | > 100 µM (inactive) | > 100 µM (inactive) |  |
| CC(=O)c1ccc(/N=N/c2ccc3nonc3c2N)cc1 | 83.4 µM (inactive) | > 100 µM (inactive) | > 100 µM (inactive) | > 100 µM (inactive) |  | > 100 µM (inactive) | > 100 µM (inactive) |  | 52.8 µM (inactive) | > 100 µM (inactive) | 26.9 µM (inactive) | > 100 µM (inactive) | > 100 µM (inactive) | > 100 µM (inactive) | > 100 µM (inactive) | > 100 µM (inactive) | > 100 µM (inactive) | > 100 µM (inactive) | > 100 µM (inactive) |
| CCCCNC(=O)C1=C(C)NC(C)=C(C(=O)NCCCC)C1 | > 100 µM (inactive) | > 100 µM (inactive) | > 100 µM (inactive) | > 100 µM (inactive) | > 100 µM (inactive) | > 100 µM (inactive) | > 100 µM (inactive) |  | > 100 µM (inactive) | > 100 µM (inactive) | > 100 µM (inactive) | > 100 µM (inactive) |  | 61.1 µM (inactive) | > 100 µM (inactive) | 71.1 µM (inactive) | > 100 µM (inactive) |  |  |
